Data taken from patent publication US9198916B1, “Compounds and methods for treating tumors” (B&G Partners, LLC, priority 2014, dated 2015).
pIC50: −log10 of the molar value. Like-named read-outs stand apart in the source and are kept apart here.

Legend:
[1] = biological target: hERG (human ether-à-go-go-related gene) potassium channel current (Homo sapiens, UniProt Q12809); test: cell-based
Method: All chemicals used in solution preparation were purchased from Sigma-Aldrich (St. Louis, Mo.) unless otherwise noted and were of ACS reagent grade purity or higher.
The duration of exposure to each test article concentration was 3 minutes.

[2] = Repeated dose intraperitoneal (IP) BID study in mice, plasma concentration by LC-MS/MS and PK fit; set-up: species or system female CD-1 mice; conditions: female, CD-1, mouse, in vivo, fitted, repeated-dose single-compartment first-order absorption model, 10 mg/kg IP BID; for half-life: ip, 10 mg/kg
Method: A total of 204.47 mg of the compound of Example 1 was weighed out in a sterile vial on an analytical balance, and a 10.22 ml volume of sterile DMSO containing 5% by volume sterile Tween 80 was added to the vial under a Class II sterile hood and mixed until fully dissolved to produce a 20 mg/ml stock solution of the compound of Example 1. The stock solution was split into 1.2 ml aliquots in sterile glass vials and stored frozen at −80° C.
Sterile 1.0 mg/ml injection solution of the compound of Example 1 was formulated in normal saline containing 4.75% DMSO and 0.25% Tween 80. A visible precipitate formed without the addition of at least 0.1% Tween 80. The injection solution was prepared by thawing one aliquot of sterile 20 mg/ml stock solution, and adding 0.526 cc of stock solution to a 10 ml sterile vial of USP 0.9% sodium chloride for injection (Hospira) to yield the desired concentrations of 1.0 mg/ml o the compound of Example 1, 4.75% DMSO, and 0.25% Tween 80. The injection solution was gently mixed until fully dissolved. […] Injection solution was stored at 4° C. for up to five days after preparation, after which it was considered expired and discarded.
A total of 16 female CD-1 mice with an age of approximately 8-10 weeks (25-30 g) were used in this repeated dosing study. Each animal was weighed on the days 1, 4, 8, 11, and 15 during treatment. A 10 mg/kg dose of the compound of Example 1 was provided by IP injection of 10 ml/kg of 1.0 mg/ml injection solution to each animal every 12.0±0.5 hr. The injection solution was removed from the refrigerator and allowed to warm at room temperature for several minutes. The septum of the injection solution was wiped with sterile alcohol, and animals received 10 ml/kg by individual insulin syringes (one syringe per animal per injection), with the injection volume calculated using the most recent weighing for each individual animal. IP injections were staggered between the left and right side of the abdomen from one dosing to the next. […] The injection solution was returned to refrigerated storage after the last animal. […]

Sequence of hERG (human ether-à-go-go-related gene) potassium channel current (Q12809 whole entry): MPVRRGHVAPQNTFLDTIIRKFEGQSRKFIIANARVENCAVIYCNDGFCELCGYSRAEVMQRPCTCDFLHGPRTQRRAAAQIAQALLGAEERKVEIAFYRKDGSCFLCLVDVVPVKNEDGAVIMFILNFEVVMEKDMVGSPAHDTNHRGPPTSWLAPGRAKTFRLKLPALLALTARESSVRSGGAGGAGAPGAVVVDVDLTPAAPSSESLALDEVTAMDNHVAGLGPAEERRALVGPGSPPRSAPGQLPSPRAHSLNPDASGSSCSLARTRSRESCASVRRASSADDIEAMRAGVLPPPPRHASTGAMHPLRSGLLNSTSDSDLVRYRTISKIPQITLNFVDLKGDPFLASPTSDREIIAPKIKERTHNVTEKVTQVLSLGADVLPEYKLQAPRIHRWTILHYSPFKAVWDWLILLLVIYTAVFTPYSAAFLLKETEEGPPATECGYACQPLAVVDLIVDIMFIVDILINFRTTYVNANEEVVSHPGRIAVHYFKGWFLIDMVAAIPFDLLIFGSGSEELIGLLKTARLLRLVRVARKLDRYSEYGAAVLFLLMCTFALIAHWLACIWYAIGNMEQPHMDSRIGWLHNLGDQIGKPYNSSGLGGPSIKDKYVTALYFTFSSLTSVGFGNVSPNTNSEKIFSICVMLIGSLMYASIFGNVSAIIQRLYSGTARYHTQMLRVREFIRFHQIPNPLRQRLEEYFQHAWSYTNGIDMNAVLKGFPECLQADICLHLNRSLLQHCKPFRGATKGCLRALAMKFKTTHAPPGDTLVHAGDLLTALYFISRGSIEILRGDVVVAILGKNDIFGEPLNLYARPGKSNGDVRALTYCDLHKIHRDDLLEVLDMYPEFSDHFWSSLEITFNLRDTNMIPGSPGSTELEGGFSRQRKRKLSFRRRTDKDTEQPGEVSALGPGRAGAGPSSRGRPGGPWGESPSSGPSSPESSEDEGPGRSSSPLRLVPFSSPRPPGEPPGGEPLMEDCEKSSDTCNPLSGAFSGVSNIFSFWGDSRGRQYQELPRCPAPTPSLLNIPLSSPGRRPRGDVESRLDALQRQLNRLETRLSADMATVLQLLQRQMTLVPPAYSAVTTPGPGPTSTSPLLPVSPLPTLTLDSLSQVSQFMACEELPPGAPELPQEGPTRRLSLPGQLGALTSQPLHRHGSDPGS

CSc1ccc2c(c1)N(CCC1CCCCN1)c1ccccc1S2.Cl (stereo not shown) [Example 1, 2-(methylsulfanyl)-10-[2-(piperidin-2-yl)ethyl]-10H-phenothiazine hydrochloride]
pIC50 [1]: 5.81
Vd/F ([2]; read-out: apparent volume of distribution (V/F)): 8 L/kg
half-life ([2]; read-out: absorption half-life (converted)): 28.8 min
half-life ([2]; read-out: elimination half-life (converted)): 882 min
